Assay results reported in patent US20260026479A1, “GENETICALLY ENGINEERED MICE MODELS FOR MULTIPLE MYELOMA” (FUNDACIÓN PARA LA INVESTIGACIÓN MÉDICA APLICADA, priority 2022, published 2026).

Legend:
MYC [1] = test: MYC expression and phosphorylation after treatment (Western blot, qRT-PCR), mouse MM cell lines; format: cell-based
Description: (§1) A total of 1 μg of total RNA from GFP^+-sorted cells was isolated with a NucleoSpin RNA kit (Macherey-Nagel) and reverse transcribed into cDNA using MMLV enzyme technology (Invitrogen). PCR was performed on an ABI Viia7 instrument using SYBR green fluorophore and primers designed to amplify specific mouse or human genes. Specific primers are listed in the Key Resources Table.
(§2) Mice were monitored twice weekly for signs of disease and were then sacrificed. […] The samples that were able to grow for weeks ex vivo were tested for the presence of the original transgenic lesions and then characterized. Eight MM-derived cells lines established from mice carrying different lesions. In vitro therapy assays. For viability assays, murine or human MM cells were seeded in 96-well black culture plates and treated with different drugs alone or in combination for 48 hours. Cell viability was quantified using a Deep Blue Cell Viability™ Kit (Biolegend) and analyzed with a Skanit Varioskan Flash 2.4.3 (Thermo Scientific) fluorometer. Treatments were administered to cells at a density of 0.3×10^6 cells/ml, and all tests were performed in triplicate. After treatment, cells were subjected to qRT-PCR or Western blot analyses, as indicated, according to previously reported methods.

human MM cells = test: In vitro viability assay, human MM cell lines; format: cell-based; settings: 48 hours, Deep Blue Cell Viability Kit
Description: (§3) Ten cell lines derived from MM patients (RPMI8226, KMS12, KMS26, KMS11, MM1S, U266, K620, JJN3, H929, and MOLP2) were included in this study. All have been validated according to the AmpFLSTR® Identifiler®, were tested for Mycoplasma sp.
as §2

murine MM cells = test: In vitro viability assay, murine MM-derived cell lines; format: cell-based, mouse; settings: 48 hours, Deep Blue Cell Viability Kit
Description: as §2

MYC [2] = target: T1, MYC (Homo sapiens, UniProt P01106); test: MYC expression and phosphorylation after treatment (Western blot, qRT-PCR), human MM cell lines; format: cell-based
T1 construct: Western blot analysis of MYC protein expression in human MM cell lines; endogenous in cells; host or cells: human MM cell lines (of RPMI8226, KMS12, KMS26, KMS11, MM1S, U266, K620, JJN3, H929, MOLP2)
T1 sequence (P01106 whole entry): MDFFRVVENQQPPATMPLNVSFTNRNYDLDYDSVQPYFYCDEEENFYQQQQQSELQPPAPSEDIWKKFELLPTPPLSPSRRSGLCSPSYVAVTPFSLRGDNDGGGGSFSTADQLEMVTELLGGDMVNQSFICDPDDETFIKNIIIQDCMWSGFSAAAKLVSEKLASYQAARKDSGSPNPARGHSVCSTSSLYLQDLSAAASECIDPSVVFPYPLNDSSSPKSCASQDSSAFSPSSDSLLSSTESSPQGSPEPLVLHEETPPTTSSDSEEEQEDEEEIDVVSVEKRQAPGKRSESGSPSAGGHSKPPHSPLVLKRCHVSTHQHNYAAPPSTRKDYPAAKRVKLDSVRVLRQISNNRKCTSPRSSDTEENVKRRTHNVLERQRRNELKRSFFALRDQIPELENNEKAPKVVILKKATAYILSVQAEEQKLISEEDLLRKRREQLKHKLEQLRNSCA
Description: as §1, §3
as §2, with “After treatment, cells were subjected to qRT-PCR or Western blot analyses, as indicated, according to previously reported methods.” left out

MYCi975
MYC protein expression (MYC [1]): dose-dependent MYC protein reduction | MM cell viability (human MM cells): decreased viability | MM cell viability (murine MM cells): decreased viability | MYC protein expression (MYC [2]): dose-dependent MYC protein reduction
